Laboratory results published in paper PMC10693532, “The cardiac glycoside ZINC253504760 induces parthanatos-type cell death and G2/M arrest via downregulation of MEK1/2 phosphorylation in leukemia cells” (Cell Biology and Toxicology, 2023).

Experiments:
[1] = molecular target: T1, MEK1 (Homo sapiens, UniProt Q02750); experiment: microscale thermophoresis, labelled recombinant human MEK1; type: binding
T1 construct: gene MAP2K1

[2] = molecular target: T2, MEK2 (Homo sapiens, UniProt P36507); experiment: microscale thermophoresis, labelled recombinant MEK2; type: binding
T2 construct: gene MAP2K2
T2 sequence (P36507 whole entry): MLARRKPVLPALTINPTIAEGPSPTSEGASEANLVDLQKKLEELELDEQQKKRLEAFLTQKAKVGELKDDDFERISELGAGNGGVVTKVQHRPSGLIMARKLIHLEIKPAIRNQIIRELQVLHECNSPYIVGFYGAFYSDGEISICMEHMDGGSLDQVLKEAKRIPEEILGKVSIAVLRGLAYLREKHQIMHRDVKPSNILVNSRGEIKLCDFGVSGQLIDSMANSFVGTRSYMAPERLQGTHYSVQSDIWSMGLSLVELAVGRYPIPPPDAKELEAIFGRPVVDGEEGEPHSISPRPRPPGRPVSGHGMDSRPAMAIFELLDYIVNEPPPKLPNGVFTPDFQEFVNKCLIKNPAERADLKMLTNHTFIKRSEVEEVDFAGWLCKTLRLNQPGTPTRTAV

T1 sequence (Q02750 whole entry): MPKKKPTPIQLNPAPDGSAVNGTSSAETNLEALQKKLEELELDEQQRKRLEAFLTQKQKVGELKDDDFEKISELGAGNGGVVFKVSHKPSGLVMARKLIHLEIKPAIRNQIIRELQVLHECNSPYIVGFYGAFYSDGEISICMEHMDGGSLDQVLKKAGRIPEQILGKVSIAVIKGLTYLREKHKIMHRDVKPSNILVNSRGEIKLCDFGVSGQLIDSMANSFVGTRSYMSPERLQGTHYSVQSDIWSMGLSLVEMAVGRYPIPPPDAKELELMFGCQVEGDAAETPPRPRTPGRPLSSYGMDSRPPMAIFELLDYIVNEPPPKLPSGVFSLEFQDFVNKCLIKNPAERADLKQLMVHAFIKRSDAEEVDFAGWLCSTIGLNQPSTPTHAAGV

C[C@H]1O[C@@H](O[C@@H]2[C@H](O)C[C@@H](O[C@@H]3[C@H](O)C[C@@H](O[C@H]4CC[C@@]5(C)[C@@H](CC[C@H]6[C@H]5C[C@@H](O)[C@]5(C)[C@H](C7=CC(=O)OC7)CC[C@]65O)C4)O[C@@H]3C)O[C@@H]2C)C[C@H](O)[C@@H]1O [ZINC253504760, 3-[(3S,5S,8S,9R,10S,12R,13S,14S,17S)-3-[(2S,4R,5R,6R)-5-[(2R,4R,5R,6R)-5-[(2S,4S,5S,6R)-4,5-dihydroxy-6-methyloxan-2-yl]oxy-4-hydroxy-6-methyloxan-2-yl]oxy-4-hydroxy-6-methyloxan-2-yl]oxy-12,14-dihydroxy-10,13-dimethyl-1,2,3,4,5,6,7,8,9,11,12,15,16,17-tetradecahydrocyclopenta[a]henanthrene-17-yl]-2H-furan-5-one]
Kd [1]: 500 nM | Kd [2]: 2200 nM
